# Data as given in patent US20170224764A1, “THERAPEUTIC TARGETING OF MITOCHONDRIA TO PREVENT OSTEOARTHRITIS” (Cornell University, priority 2016, published 2017).
# Entries after “also recorded” stand apart in the source; their conditions may differ.
# Columns and labels:
# Format in all cases: cell-based, bovids
# cartilage explants [1] = test: Cell membrane damage, lactate dehydrogenase (LDH) activity assay on cartilage conditioned media; conditions: 1 μM
# Procedure: (§1) Cartilage was harvested from the knee joints of 4 neonatal bovids (n=30 explants). Cartilage explants were subjected to unconfined compression (24.0±1.4 MPa peak stress; 53.8±5.3 GPa/s peak stress rate) using a validated single-impact subcritical damage model.
# (§2) Cartilage explants were treated with 1 μM D-Arg-Dmt-Lys-Phe-NH2 (SS-31) immediately after injury (T0), one hour following injury (T1), or 6 hours after injury (T6), and then cultured for 7 days. Cartilage conditioned media (CCM) was sampled at T0, T1, T6, and every 24 hours after injury (T24-168) for 7 days.
# (§3) Explants were stained with calcein AM and ethidium homodimer (for live and dead cells, respectively) to assess chondrocyte viability at T24 and T168 using confocal microscopy. Live, dead and total cell numbers were quantified in z-stacked digital images using a custom ImageJ macro. To quantify cell membrane damage, CCM was analyzed using a colorimetric lactate dehydrogenase (LDH) activity assay, and cumulative cell membrane damage over the 7-day incubation period was determined for each explant.
# (§4) Tissue harvest. Full thickness cartilage explants were harvested from the knee joints of healthy bovids (n=8 animals, 1-3 days of age) within 48 hours of sacrifice using an 8 mm biopsy punch. Specimens were rinsed in phosphate-buffered saline (PBS), trimmed to a uniform thickness of 3 mm from the articular surface using a custom jig, and placed in cartilage explant media (phenol free DMEM containing 1% FBS, HEPES 0.025 ml/ml, penicillin 100 U/mL, streptomycin 100 U/mL and 0.1 g/L glucose).
# Rapid impact injury model. Explants were subjected to injury using rapid-impact model or served as unimpacted controls (as described in Example 3). […] Impact force was measured at 50 kHz by a load cell (PCBPiezotronics, Depew, N.Y.) attached to the impactor tip. Voltage from the load cell was recorded with a custom LabVIEW program (NI, Austin Tex.). The impact magnitude was adjusted by setting the deflection of the impactor's internal spring and mechanical parameters for each impact were calculated (as described in Example 3). […]
# cartilage explants [2] = test: Cartilage matrix degradation, GAG loss into the media by DMMB assay; conditions: 1 μM
# Procedure: as §1
# […] Cartilage conditioned media (CCM) was sampled at T0, T1, T6, and every 24 hours after injury (T24-168) for 7 days.
# Cartilage matrix degradation was quantified by measuring GAG loss into the media via DMMB assay.
# as §4
# (§5) Rapid impact injury model. Explants were subjected to injury using rapid-impact model or served as unimpacted controls (as described in Example 3). Briefly, explants were positioned in a well containing PBS under the plane-ended tip of a spring-loaded impacting device. The impactor was used to deliver a single, rapid cycle of unconfined axial compression (24.0±1.4 MPa peak stress; 53.8±5.3 GPa/s peak stress rate). Impact force was measured at 50 kHz by a load cell (PCBPiezotronics, Depew, N.Y.) attached to the impactor tip. Voltage from the load cell was recorded with a custom LabVIEW program (NI, Austin Tex.). The impact magnitude was adjusted by setting the deflection of the impactor's internal spring and mechanical parameters for each impact were calculated (as described in Example 3).
# D-Arg-2′,6′-Dmt-Lys-Phe-NH2 (SS-31) treatment. […] Cartilage was kept moist at all times and each cut was performed with a fresh (unused) and lubricated cutting instrument. Handling of the experimental tissues was strictly minimized at each step. Explants were placed directly into an individual well of a 24-well untreated tissue culture plate containing a known volume (1.5 ml) of cartilage explant media. Cartilage hemicylinders were randomly assigned to one of 10 treatment groups (n=6/group, FIG. 22). Injured (I) and uninjured control (C) explants in the non-treated groups (ITno, CTno) were placed into wells containing only media. […]
# Cartilage GAG loss. To determine if D-Arg-2′,6′-Dmt-Lys-Phe-NH2 could provide structural protection after impact injury, the loss of glycosaminoglycan (GAG) was determined by routine 1,9-dimethyl-methylene blue dye binding (DMMB) assay. […] Total GAG content was read […], and expressed as the total GAG released into cartilage conditioned media over the culture period per μg dry weight of cartilage. […]
# [3] = system: chondrocytes in cartilage explants; test: Chondrocyte viability, live/dead staining (calcein AM / ethidium homodimer) of impacted cartilage explants, confocal microscopy; conditions: 1 μM
# Procedure: as §1, §2, §3, §4, §5
# D-Arg-2′,6′-Dmt-Lys-Phe-NH2 (SS-31) treatment. Following injury, explants were cut perpendicular to the articular surface into 2 hemicylinders using a custom cutting jig to ensure uniform geometry. Cartilage was kept moist at all times and each cut was performed with a fresh (unused) and lubricated cutting instrument. Handling of the experimental tissues was strictly minimized at each step. Explants were placed directly into an individual well of a 24-well untreated tissue culture plate containing a known volume (1.5 ml) of cartilage explant media. Cartilage hemicylinders were randomly assigned to one of 10 treatment groups (n=6/group, FIG. 22). Injured (I) and uninjured control (C) explants in the non-treated groups (ITno, CTno) were placed into wells containing only media. Explants in the time zero treatment groups (IT0, CT0) were placed directly into media containing 1 μM D-Arg-2′,6′-Dmt-Lys-Phe-NH2(SS-31). Explants in the one-hour treatment groups (IT1, CT1) were placed into media only and D-Arg-2′,6′-Dmt-Lys-Phe-NH2(1 μM) was added to the wells 1 hour after impact. Explants in the six-hour treatment groups (IT6, CT6) were placed into media only and D-Arg-2′,6′-Dmt-Lys-Phe-NH2 (1 μM) was added 6 hours after impact. Explants in the twelve-hour treatment groups (IT12, CT12) were placed into media only and D-Arg-2′,6′-Dmt-Lys-Phe-NH2 (1 μM) was added 12 hours after impact. Explants were maintained under standard tissue culture conditions (36° C. and 21% O2) for 7 days. Medium was sampled at 1, 6, and 12 hours, and at 3, 5, and 7 days after impact, and stored at −80° C. until biochemical assays were performed. […]
# [4] = system: chondrocytes in cartilage explants; test: Apoptosis, activated caspase 3/7 staining of impacted cartilage explants; conditions: Example 6, 1 μM
# Procedure: as §4, §5
# D-Arg-2′,6′-Dmt-Lys-Phe-NH2 (SS-31) treatment. […]
substance,measurement,setting,value
"D-Arg-2′,6′-Dmt-Lys-Phe-NH2",cumulative cell membrane damage (LDH activity) over the 7 days following injury,"cartilage explants [1]; Example 2, treated versus untreated impacted cartilage",prevents cell membrane damage; also recorded: lower in treated than untreated cartilage
same,"cumulative cell membrane damage, LDH activity in cartilage conditioned media over the 7 days following injury","cartilage explants [1]; Example 6, injured, treated versus injured, untreated cartilage, p=0.0005","approximately twofold lower; also recorded: lower than injured, untreated explants"
same,cumulative LDH in uninjured controls,"cartilage explants [1]; Example 6, uninjured, treated versus untreated controls, p=0.05",lower cumulative LDH than untreated controls; also recorded: protective effect against cell membrane damage
same,impact-induced GAG loss into the media,"cartilage explants [2]; Example 2, treatment at 0, 1 or 6 hours after impact, 96 hr post impact",decreased GAG loss
same,decrease of impact-induced GAG loss,"cartilage explants [2]; Example 6, cumulative GAG loss, p=0.002",~30%
same,cartilage matrix degeneration (GAG loss into the media) compared with uninjured controls,"cartilage explants [2]; Example 6, treatment at 0, 1 or 6 hours after impact",equivalent to uninjured controls
same,"cartilage matrix degeneration (GAG loss into the media) compared with untreated, injured controls","cartilage explants [2]; Example 6, treatment at 12 hours after impact",reduced cartilage matrix degeneration
same,chondrocyte death at 24 hours,"[3]; Example 2, treatment at 0, 1 or 6 hours after impact, versus untreated impacted cartilage",significantly reduced
same,chondrocyte viability / death in injury+treatment groups compared with un-injured controls,"[3]; Example 6, day 1, treatment at 0, 1 or 6 hours",equivalent to uninjured controls
same,"reduction in impact-induced chondrocyte death, treated versus untreated explants","[3]; Example 6, day 1, treatment at 0, 1 or 6 hours after impact",over 50%
same,cell death at 1 day post-injury,"[3]; Example 6, injured groups treated at 0, 1 or 6 hours (IT0, IT1, IT6) versus untreated injured",potently reduced cell death; also recorded: effective at preventing chondrocyte death
same,effect of treatment time on cell death,"[3]; Example 6, injury groups treated at 0, 1 or 6 hours, p=0.93",no effect of treatment time
same,"chondrocyte death (% dead cells) compared with untreated, injured controls","[3]; Example 6, treatment at 0, 1, 6 or 12 hours after impact","reduced chondrocyte death; also recorded: reduced as compared to untreated, injured controls"
same,impact-induced cell death on day 7,"[3]; Example 6, treatment immediately, at 1 hour or at 6 hours after impact",prevented impact-induced cell death to a similar degree; also recorded: effective at preventing chondrocyte death
same,impact-induced apoptosis (caspase 3/7 positive cells) at 1 day,"[4]; 1 day after cartilage injury, p=0.007",prevented impact-induced apoptosis; also recorded: equivalent to uninjured controls
same,impact-induced apoptosis (caspase 3/7 positive cells) at 7 days,"[4]; 7 days after cartilage injury, p=0.04",prevented impact-induced apoptosis; also recorded: equivalent to uninjured controls
